Laboratory results from PubChem BioAssay (NCI).
Values joined by “and” are separate entries in the source; they are usually repeats but may differ in a detail not shown here. Equal values may be shown once.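 Compound exposure: 48 hours, 5 concentrations, 96-well plates. GI50 is the concentration that inhibits growth by half. TGI is the concentration that stops growth completely.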

Assays:
Assay in all cases: NCI anticancer screen, dose series, 48 h
HCC-2998 colon = system: HCC-2998 colon
HOP-62 NSCLC = system: HOP-62 NSCLC
IGROV1 ovarian = system: IGROV1 ovarian
K-562 leukemia = system: K-562 leukemia
LOX IMVI melanoma = system: LOX IMVI melanoma
NCI/ADR-RES ovarian = system: NCI/ADR-RES ovarian
OVCAR-4 ovarian = system: OVCAR-4 ovarian
SF-539 CNS = system: SF-539 CNS
SK-MEL-2 melanoma = system: SK-MEL-2 melanoma
UACC-257 melanoma = system: UACC-257 melanoma

## N#CC1(C#N)C2C=CC(C3CC=CC32)C1(C#N)C#N (configuration not stated)
HCC-2998 colon
  TGI: > 50 µM
HOP-62 NSCLC
  TGI: 33.3 µM
IGROV1 ovarian
  TGI: 16.5 µM
K-562 leukemia
  GI50: 1.01 µM
  TGI: 5.83 µM and 3.38 µM
LOX IMVI melanoma
  TGI: 18.6 µM
NCI/ADR-RES ovarian
  TGI: 33.4 µM
OVCAR-4 ovarian
  GI50: 9.34 µM
  TGI: 9.16 µM and 18.7 µM
SF-539 CNS
  TGI: 17.2 µM
SK-MEL-2 melanoma
  TGI: 32.1 µM
UACC-257 melanoma
  TGI: 21 µM

## O=C(/C=C/c1cccnc1)c1ccccc1
HCC-2998 colon
  GI50: 14.9 µM
  TGI: 29.1 µM
HOP-62 NSCLC
  GI50: 13.7 µM
  TGI: 26.8 µM
IGROV1 ovarian
  GI50: 4.97 µM
  TGI: 25.6 µM
K-562 leukemia
  GI50: 2.85 µM
  TGI: 8.53 µM
LOX IMVI melanoma
  GI50: 1.86 µM
  TGI: 3.62 µM
NCI/ADR-RES ovarian
  GI50: 14.3 µM
  TGI: 36 µM
OVCAR-4 ovarian
  GI50: 13 µM
  TGI: 26.5 µM
SF-539 CNS
  GI50: 13.3 µM
  TGI: 28.6 µM
SK-MEL-2 melanoma
  GI50: 13.5 µM
  TGI: 27 µM
UACC-257 melanoma
  GI50: 10.4 µM
  TGI: 22.7 µM

## COc1cccc(Nc2ncnn3ccc(CN4CC[C@@H](N)[C@H](O)C4)c23)c1
HCC-2998 colon
  GI50: 15.6 µM and > 3.65 µM
  TGI: 36.1 µM and > 9.59 µM
HOP-62 NSCLC
  GI50: 4.22 µM and 0.506 µM
  TGI: 27.3 µM and > 10 µM
IGROV1 ovarian
  GI50: 0.407 µM and 0.0561 µM
  TGI: 6.79 µM and 2.73 µM
K-562 leukemia
  GI50: 0.285 µM and 0.168 µM
  TGI: 10.2 µM and > 10 µM
LOX IMVI melanoma
  GI50: 4.58 µM and 1.33 µM
  TGI: 21.1 µM and > 5.65 µM
NCI/ADR-RES ovarian
  GI50: 4.32 µM and 2.93 µM
  TGI: 39.7 µM and > 10 µM
OVCAR-4 ovarian
  GI50: 13.3 µM and > 5.11 µM
  TGI: 55.4 µM and > 10 µM
SF-539 CNS
  GI50: 1.72 µM and 1.08 µM
  TGI: 13.5 µM and > 7.44 µM
SK-MEL-2 melanoma
  GI50: 19.9 µM and > 4.7 µM
  TGI: 39.8 µM and > 7.19 µM
UACC-257 melanoma
  GI50: 17.5 µM and > 5.79 µM
  TGI: 34 µM and > 10 µM

## Oc1c(CCl)cc(Cl)cc1Cc1cc(Cl)cc(Cc2cc(Cl)cc(CCl)c2O)c1O
HCC-2998 colon
  GI50: 2.8 µM
  TGI: 12.2 µM
HOP-62 NSCLC
  GI50: 4.42 µM
  TGI: 26.5 µM
IGROV1 ovarian
  GI50: 3.79 µM
  TGI: 16.7 µM
K-562 leukemia
  GI50: 1.99 µM
  TGI: 13.4 µM
LOX IMVI melanoma
  GI50: 3.27 µM
  TGI: 12.2 µM
NCI/ADR-RES ovarian
  GI50: 2.2 µM
  TGI: 7.29 µM
OVCAR-4 ovarian
  GI50: 3.1 µM
  TGI: 64.7 µM
SF-539 CNS
  GI50: 4.16 µM
  TGI: 18.2 µM
SK-MEL-2 melanoma
  GI50: 2.16 µM
  TGI: 6.82 µM
UACC-257 melanoma
  GI50: 4.66 µM
  TGI: 29.9 µM

## CCOC(=O)Cc1csc(Nc2nc(O)c(C3=c4ccccc4=NC3=O)s2)n1
HCC-2998 colon
  GI50: 29.8 µM
  TGI: > 100 µM
HOP-62 NSCLC
  GI50: 20.6 µM
  TGI: 39.5 µM
IGROV1 ovarian
  GI50: 27.2 µM
  TGI: 69 µM
K-562 leukemia
  GI50: 37.2 µM
  TGI: > 100 µM
LOX IMVI melanoma
  GI50: 22.1 µM
  TGI: 54.2 µM
NCI/ADR-RES ovarian
  GI50: 55.6 µM
  TGI: > 100 µM
OVCAR-4 ovarian
  GI50: 42.3 µM
  TGI: > 100 µM
SF-539 CNS
  GI50: 60 µM
  TGI: > 100 µM
SK-MEL-2 melanoma
  GI50: 25.7 µM
  TGI: > 100 µM
UACC-257 melanoma
  GI50: 76.9 µM
  TGI: > 100 µM

## NNC(=S)N/N=C/c1ccccn1
HCC-2998 colon
  GI50: 3.12 µM
  TGI: > 100 µM
HOP-62 NSCLC
  GI50: 1.44 µM
  TGI: 35.3 µM
IGROV1 ovarian
  GI50: 3.05 µM
  TGI: > 100 µM
K-562 leukemia
  GI50: 2.64 µM
  TGI: > 100 µM
LOX IMVI melanoma
  GI50: 2.3 µM
  TGI: > 100 µM
NCI/ADR-RES ovarian
  GI50: 2.81 µM
  TGI: > 100 µM
OVCAR-4 ovarian
  GI50: 1.67 µM
  TGI: > 100 µM
SF-539 CNS
  GI50: 2.06 µM
  TGI: 9.32 µM
SK-MEL-2 melanoma
  GI50: 2.86 µM
  TGI: > 100 µM
UACC-257 melanoma
  GI50: 2.7 µM
  TGI: 26.6 µM
